Where a name gives a salt, the structure may show the parent alone. A value given as a limit tells only on which side of the number the result lay.

What is called IC50 is the midpoint of a concentration-inhibition curve.

Format in all cases: biochemical
Test [1] concerns the target T1, recombinant soluble tissue factor and recombinant human factor VIIa (TF-VIIa) (Homo sapiens, UniProt P08709).
T1 construct: conversion of coagulation factor VII to VIIa by factor Xa; purchased American Diagnostica, Greenwich CT; host or cells: soluble TF made in house in E. coli
The test can be described thus: TF-VIIa assay (chromogenic substrate hydrolysis). The note with it: reported only as less than or greater than 0.1 uM. In short, it runs like this:
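100 nM soluble tissue factor and 2 nM recombinant human factor VIIa added to 0.4 mM N-methylsulfonyl-D-phe-gly-arg-p-nitroaniline with inhibitor in 50 mM Tris-HCl pH 8.0, 5 mM CaCl2, 100 mM NaCl, 0.1% BSA. Percent inhibition from OD405 versus control.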

The next test deals with T2, Human factor Xa (Homo sapiens, UniProt P00742).
T2 construct: purchased Enzyme Research Laboratories, South Bend Ind
The test can be described thus: Xa assay (chromogenic substrate S-2765). The following applies: reported only as less than or greater than 30 uM; read-out: Factor Xa (II) IC50. In short, it runs like this: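 Human factor Xa (0.3 nM) was incubated with inhibitor and 0.15 mM S-2765 in 50 mM Tris-HCl pH 8.0, 100 mM NaCl, 0.1% BSA. After 60 min at RT, p-nitroaniline release was read at 405 nm after background subtraction. Percent inhibition was calculated against uninhibited control.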

Another test concerns the target T3, Human thrombin (Homo sapiens, UniProt P00734).
T3 construct: converts prothrombin (II) to thrombin (IIa); purchased Calbiochem, La Jolla, Calif
The test can be described thus: Thrombin assay (chromogenic substrate). The following applies: reported only as less than or greater than 30 uM; read-out: Thrombin (II) IC50. Summed up: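 Chromogenic assay with p-nitroaniline-releasing substrate; thrombin activity read as OD405 nm. Percent inhibition calculated from experimental versus control absorbance.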

The test system of test [2] is Normal human pooled plasma. The test can be described thus: Prothrombin time (PT) clotting assay. The note with it: concentration at which prothrombin time is prolonged by 2x normal, reported as less than or greater than 50 uM. Summed up:
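Normal human pooled plasma incubated with 100 uM compound or saline, then thromboplastin (human tissue factor) added and clotting time recorded in a coagulation machine. Compounds exceeding 3× normal PT (11.0 s) are titrated to find the concentration doubling PT.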

T2 sequence (P00742 235-488 limits assumed): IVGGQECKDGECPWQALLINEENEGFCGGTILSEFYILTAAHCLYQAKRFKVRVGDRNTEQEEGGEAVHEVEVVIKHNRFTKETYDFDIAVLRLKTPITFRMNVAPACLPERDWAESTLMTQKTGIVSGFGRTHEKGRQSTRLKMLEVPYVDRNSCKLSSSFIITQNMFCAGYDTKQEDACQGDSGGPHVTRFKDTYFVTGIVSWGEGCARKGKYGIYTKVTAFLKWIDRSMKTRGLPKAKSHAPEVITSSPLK
T2 sequence (P00742 41-179 limits assumed): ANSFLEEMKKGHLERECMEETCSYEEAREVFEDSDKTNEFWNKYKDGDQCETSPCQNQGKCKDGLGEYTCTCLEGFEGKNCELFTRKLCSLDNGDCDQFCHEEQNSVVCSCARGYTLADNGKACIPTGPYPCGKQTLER
T1 sequence (P08709 213-466 limits assumed): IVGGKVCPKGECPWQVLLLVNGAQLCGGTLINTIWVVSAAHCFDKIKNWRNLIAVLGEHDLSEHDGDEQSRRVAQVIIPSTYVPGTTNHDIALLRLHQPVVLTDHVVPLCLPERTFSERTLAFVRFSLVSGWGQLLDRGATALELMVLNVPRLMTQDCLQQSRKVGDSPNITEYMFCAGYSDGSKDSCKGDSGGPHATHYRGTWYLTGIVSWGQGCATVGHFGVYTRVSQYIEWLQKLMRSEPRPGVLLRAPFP
T1 sequence (P08709 61-212 limits assumed): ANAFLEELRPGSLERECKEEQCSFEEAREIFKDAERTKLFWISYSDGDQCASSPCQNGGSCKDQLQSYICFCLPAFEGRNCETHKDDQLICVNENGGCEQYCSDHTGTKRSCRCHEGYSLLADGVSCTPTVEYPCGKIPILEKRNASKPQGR
T1 sequence (P13726 33-251 partner limits assumed): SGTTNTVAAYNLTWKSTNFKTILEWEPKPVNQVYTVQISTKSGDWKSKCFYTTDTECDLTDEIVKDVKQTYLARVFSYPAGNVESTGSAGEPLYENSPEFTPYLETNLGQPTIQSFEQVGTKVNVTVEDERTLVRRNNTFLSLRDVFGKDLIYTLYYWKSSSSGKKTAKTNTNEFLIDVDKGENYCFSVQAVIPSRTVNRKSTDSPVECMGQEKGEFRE

`CC(C)Nc1ncc(-c2cc(N)cc(NS(=O)(=O)c3ccccc3C(F)(F)F)c2)n(CC(=O)NCc2ccc(C(=N)N)cc2)c1=O` [Example 89]: the results for the concentration for half-maximal inhibition (IC50) (in test [1]; on Human factor Xa; on Human thrombin) were below 0.1 µM, above 30 µM and above 30 µM, respectively. Further, in test [2], the “PT (Prothrombin time) 2xPT” value is below 50.0 µM.
Regarding `CC(C)Nc1ncc(-c2cc(N)cc(NS(=O)(=O)c3ccc4ccccc4c3)c2)n(CC(=O)NCc2ccc(C(=N)N)cc2)c1=O` [Example 90], the results for the concentration for half-maximal inhibition (IC50) (in test [1]; on Human factor Xa; on Human thrombin) were below 0.1 µM, above 30 µM and above 30 µM, respectively. In test [2], the “PT (Prothrombin time) 2xPT” value was below 50.0 µM.
As for `CC(C)Nc1ncc(-c2cc(N)cc(NS(=O)(=O)c3cccs3)c2)n(CC(=O)NCc2ccc(C(=N)N)cc2)c1=O` [Example 91], the IC50 was below 0.1 µM in test [1], above 30 µM on Human factor Xa and above 30 µM at Human thrombin. The “PT (Prothrombin time) 2xPT” value in test [2] is below 50.0 µM.
Consider `COc1ccc(S(=O)(=O)Nc2cc(N)cc(-c3cnc(NC(C)C)c(=O)n3CC(=O)NCc3ccc(C(=N)N)cc3)c2)cc1` [Example 92], for which the 50% inhibitory concentration (IC50) in test [1] is below 0.1 µM; on Human factor Xa, above 30 µM; on Human thrombin, above 30 µM. In addition, the “PT (Prothrombin time) 2xPT” value in test [2] is below 50.0 µM.
As for `CC(C)Nc1ncc(-c2cc(N)cc(NS(=O)(=O)c3ccc(F)cc3)c2)n(CC(=O)NCc2ccc(C(=N)N)cc2)c1=O` [Example 93], the results for the IC50 (in test [1]; at Human factor Xa; on Human thrombin) were below 0.1 µM, above 30 µM and above 30 µM, respectively. In test [2], the “PT (Prothrombin time) 2xPT” value was below 50.0 µM.
`CC(C)Nc1ncc(-c2cc(N)cc(NS(=O)(=O)c3ccc(F)cc3F)c2)n(CC(=O)NCc2ccc(C(=N)N)cc2)c1=O` [Example 94]: the figures for the half-maximal inhibitory concentration (IC50) (in test [1]; at Human factor Xa; at Human thrombin) were below 0.1 µM, above 30 µM and above 30 µM, respectively. Moreover, the “PT (Prothrombin time) 2xPT” value in test [2] was below 50.0 µM.
On to `CC(C)Nc1ncc(-c2cc(N)cc(NS(=O)(=O)CCc3ccccc3)c2)n(CC(=O)NCc2ccc(C(=N)N)cc2)c1=O` [Example 95], for which the half-inhibitory concentration (IC50) in test [1] was below 0.1 µM; at Human factor Xa, above 30 µM; at Human thrombin, above 30 µM. In addition, the “PT (Prothrombin time) 2xPT” value in test [2] was below 50.0 µM.
As to `CC(C)Nc1ncc(-c2cc(N)cc(NS(=O)(=O)c3ccccc3)c2)n(CC(=O)NCc2ccc(C(=N)N)cc2)c1=O` [Example 96], the IC50 in test [1] was below 0.1 µM; on Human factor Xa, above 30 µM; on Human thrombin, above 30 µM. Also, the “PT (Prothrombin time) 2xPT” value in test [2] was below 50.0 µM.
For `CC(C)Nc1ncc(-c2cc(N)cc(NCc3ccccc3)c2)n(CC(=O)NCc2ccc(C(=N)N)cc2)c1=O` [Example 98], the IC50 in test [1] was below 0.1 µM; at Human factor Xa, above 30 µM; at Human thrombin, above 30 µM. Also, in test [2], the “PT (Prothrombin time) 2xPT” value was below 50.0 µM.
Consider `CC(C)Nc1ncc(-c2cc(N)cc(NC(=O)Cc3ccccc3)c2)n(CC(=O)NCc2ccc(C(=N)N)cc2)c1=O` [Example 99], for which the IC50 in test [1] is below 0.1 µM; on Human factor Xa it was above 30 µM; at Human thrombin it was above 30 µM. In addition, the “PT (Prothrombin time) 2xPT” value in test [2] is below 50.0 µM.
With `CC(C)Nc1ncc(-c2cc(N)cc(NC(=O)C3CCCC3)c2)n(CC(=O)NCc2ccc(C(=N)N)cc2)c1=O` [Example 100], the values for the IC50 (in test [1]; at Human factor Xa; on Human thrombin) were below 0.1 µM, above 30 µM and below 30 µM, respectively. Also, the “PT (Prothrombin time) 2xPT” value in test [2] is below 50.0 µM.
Regarding `CC(C)Nc1ncc(-c2cc(N)cc(NCCC(C)c3ccccc3)c2)n(CC(=O)NCc2ccc(C(=N)N)cc2)c1=O` (centres unmarked) [Example 101], the IC50 in test [1] was below 0.1 µM; at Human factor Xa, above 30 µM; at Human thrombin, below 30 µM. Besides, the “PT (Prothrombin time) 2xPT” value in test [2] is below 50.0 µM.
On the same counts, the results for `CC(C)CCNc1cc(N)cc(-c2cnc(NC(C)C)c(=O)n2CC(=O)NCc2ccc(C(=N)N)cc2)c1` [Example 102] are below 0.1 µM, above 30 µM, below 30 µM and below 50.0 µM.
On the same counts, the results for `CC(C)Nc1ncc(-c2cc(N)cc(NCc3ccsc3)c2)n(CC(=O)NCc2ccc(C(=N)N)cc2)c1=O` [Example 103] are below 0.1 µM, above 30 µM, above 30 µM and below 50.0 µM.
`CCCC(C)C(=O)Nc1cc(N)cc(-c2cnc(NC(C)C)c(=O)n2CC(=O)NCc2ccc(C(=N)N)cc2)c1` (centres unmarked) [Example 104]: the IC50 in test [1] is below 0.1 µM; on Human factor Xa, above 30 µM; at Human thrombin it was below 30 µM. The “PT (Prothrombin time) 2xPT” value in test [2] is below 50.0 µM.
On the same counts, the results for `COc1cccc(CC(=O)Nc2cc(N)cc(-c3cnc(NC(C)C)c(=O)n3CC(=O)NCc3ccc(C(=N)N)cc3)c2)c1` [Example 105] are below 0.1 µM, above 30 µM, above 30 µM and below 50.0 µM.
On the same counts, the results for `CC(C)Nc1ncc(-c2cc(N)cc(NC(=O)CCc3ccccc3)c2)n(CC(=O)NCc2ccc(C(=N)N)cc2)c1=O` [Example 106] are below 0.1 µM, above 30 µM, above 30 µM and below 50.0 µM.
On the same counts, the results for `CC(C)Nc1ncc(-c2cc(N)cc(NC(=O)CCC3CCCC3)c2)n(CC(=O)NCc2ccc(C(=N)N)cc2)c1=O` [Example 107] are below 0.1 µM, above 30 µM, above 30 µM and below 50.0 µM.
For the compound `CCCc1ccc(C(=O)Nc2cc(N)cc(-c3cnc(NC(C)C)c(=O)n3CC(=O)NCc3ccc(C(=N)N)cc3)c2)cc1` [Example 108], the IC50 in test [1] is below 0.1 µM; at Human factor Xa it was above 30 µM; at Human thrombin, below 30 µM. Moreover, the “PT (Prothrombin time) 2xPT” value in test [2] was below 50.0 µM.
In the case of `CC(C)Nc1ncc(-c2cc(N)cc(NC(=O)c3ccccc3)c2)n(CC(=O)NCc2ccc(C(=N)N)cc2)c1=O` [Example 109], the IC50 in test [1] was below 0.1 µM; at Human factor Xa it was above 30 µM; on Human thrombin, below 30 µM. Further, the “PT (Prothrombin time) 2xPT” value in test [2] was below 50.0 µM.
On the same counts, the results for `CC(C)Nc1ncc(-c2cc(N)cc(NCCc3ccccc3)c2)n(CC(=O)NCc2ccc(C(=N)N)cc2)c1=O` [Example 110, N-{4-[amino(imino)methyl]benzyl}-2-[6-{3-amino-5-[(2-phenylethyl)amino]phenyl}-3-(isopropylamino)-2-oxopyrazin-1 (2H)-yl]acetamide trifluoroacetate] are below 0.1 µM, above 30 µM, above 30 µM and below 50.0 µM.
The like results for `CC(C)Nc1ncc(-c2cc(N)cc(NCCCc3ccccc3)c2)n(CC(=O)NCc2ccc(C(=N)N)cc2)c1=O` [Example 111] were, in that order, below 0.1 µM, above 30 µM, above 30 µM and below 50.0 µM.
Take `CC(C)CC(=O)Nc1cc(N)cc(-c2cnc(NC(C)C)c(=O)n2CC(=O)NCc2ccc(C(=N)N)cc2)c1` [Example 112]: the concentration for half-maximal inhibition (IC50) in test [1] was below 0.1 µM; on Human factor Xa it was above 30 µM; on Human thrombin, below 30 µM. Besides, the “PT (Prothrombin time) 2xPT” value in test [2] is below 50.0 µM.
The like results for `CC(C)Nc1ncc(-c2cc(N)cc(NC(=O)Nc3ccccc3)c2)n(CC(=O)NCc2ccc(C(=N)N)cc2)c1=O` [Example 113] were, in that order, below 0.1 µM, above 30 µM, above 30 µM and below 50.0 µM.
On the same counts, the results for `CC(C)Nc1ncc(-c2cc(N)cc(NC(=O)NCc3ccccc3)c2)n(CC(=O)NCc2ccc(C(=N)N)cc2)c1=O` [Example 114] are below 0.1 µM, above 30 µM, above 30 µM and below 50.0 µM.
For the compound `CC(C)Nc1ncc(-c2cc(N)cc(C(F)(F)F)c2)n(CC(=O)NCc2cc(O)c(C(=N)N)c(F)c2)c1=O.O=C(O)C(F)(F)F` [Example 116], the 50% inhibitory concentration (IC50) in test [1] was above 0.1 µM; on Human factor Xa, below 30 µM; on Human thrombin it was above 30 µM. The “PT (Prothrombin time) 2xPT” value in test [2] was below 50.0 µM.
The like results for `CC(C)Nc1ncc(-c2cc(N)cc(C(=O)O)c2)n(CC(=O)NCc2ccc(C(=N)N)cc2)c1=O.O=C(O)C(F)(F)F` [Example 118] were, in that order, below 0.1 µM, above 30 µM, above 30 µM and below 50.0 µM.
On the same counts, the results for `COCCNC(=O)c1cc(N)cc(-c2cnc(NC(C)C)c(=O)n2CC(=O)NCc2ccc(C(=N)N)cc2)c1.O=C(O)C(F)(F)F` [Example 119] are below 0.1 µM, above 30 µM, below 30 µM and below 50.0 µM.
For `COc1cc(N)cc(-c2cnc(NC(C)C)c(=O)n2CC(=O)NCc2cc(O)c(C(=N)N)c(F)c2)c1.Cl.Cl` [Example 123], the IC50 in test [1] was below 0.1 µM; at Human factor Xa, above 30 µM; at Human thrombin it was above 30 µM. In addition, the “PT (Prothrombin time) 2xPT” value in test [2] was below 50.0 µM.

Values taken from US20040106626A1, “6-Membered unsaturated heterocyclic compounds useful for selective inhibition of the coagulation cascade” (Pharmacia Corporation, priority 2001, published 2004).
